Experimental data as given in article PMC11509018, “Evaluation of the Role of Tanshinone I in an In Vitro System of Charcot-Marie-Tooth Disease Type 2N” (International Journal of Molecular Sciences, 2024).

Biological target: T1, AlaRS E337K binding to GST-Nrp1 b1 (Homo sapiens, UniProt P49588, E337K)
T1 construct: made in house; host or cells: E. coli BL21 (DE3), pET-21a for AlaRS
T1 sequence (P49588 1-968 E337K): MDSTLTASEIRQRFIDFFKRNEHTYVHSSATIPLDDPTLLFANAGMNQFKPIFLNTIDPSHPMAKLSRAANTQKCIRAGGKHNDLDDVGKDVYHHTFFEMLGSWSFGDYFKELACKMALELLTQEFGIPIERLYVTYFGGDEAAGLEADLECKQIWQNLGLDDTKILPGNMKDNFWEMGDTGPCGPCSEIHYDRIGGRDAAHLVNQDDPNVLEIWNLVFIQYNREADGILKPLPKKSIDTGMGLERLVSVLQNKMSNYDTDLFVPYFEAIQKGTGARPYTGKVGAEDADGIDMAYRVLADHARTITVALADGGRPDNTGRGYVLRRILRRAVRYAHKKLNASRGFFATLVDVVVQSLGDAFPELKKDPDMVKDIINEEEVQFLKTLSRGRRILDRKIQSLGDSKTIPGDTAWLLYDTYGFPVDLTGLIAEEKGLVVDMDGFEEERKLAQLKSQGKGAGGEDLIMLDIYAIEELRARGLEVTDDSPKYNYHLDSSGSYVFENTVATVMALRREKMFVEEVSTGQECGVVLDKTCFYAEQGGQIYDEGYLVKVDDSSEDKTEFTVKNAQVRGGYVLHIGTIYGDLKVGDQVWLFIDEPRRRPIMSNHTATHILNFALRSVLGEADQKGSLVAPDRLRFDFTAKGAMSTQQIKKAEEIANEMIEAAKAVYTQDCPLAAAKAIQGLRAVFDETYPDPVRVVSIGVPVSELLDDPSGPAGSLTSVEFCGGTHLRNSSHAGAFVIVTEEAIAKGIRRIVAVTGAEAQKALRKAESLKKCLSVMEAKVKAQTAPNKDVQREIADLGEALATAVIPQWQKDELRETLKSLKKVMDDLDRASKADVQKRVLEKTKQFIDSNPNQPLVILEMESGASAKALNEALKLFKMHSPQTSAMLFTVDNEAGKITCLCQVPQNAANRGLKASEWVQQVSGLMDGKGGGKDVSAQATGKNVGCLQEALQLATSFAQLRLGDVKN
Assay: GST pull down assay
Details: 20 µM Tanshinone I, ImageJ, average of three repeats
Experimental: To further investigate whether Tanshinone I-induced conformational changes in AlaRS CMT mutants affect their interaction with Nrp1, Co-IP experiments were performed in cells treated with Tanshinone I. By comparing Co-IP results obtained before and after treatment, we assessed the influence of the drug on the binding strength and mode between the AlaRS CMT mutants and Nrp1. […] To confirm the direct effect of Tanshinone I on the interaction between AlaRS CMT mutants and Nrp1, pull-down experiments were performed. […] Given that the interaction between AlaRS mutants and Nrp1 is associated with disease progression in CMT, the ability of Tanshinone I to disrupt this binding highlights its potential to intervene in the pathogenic mechanisms of these diseases.
Figure 7 The impact of Tanshinone I on the interaction between AlaRS mutants and Nrp1. (A) Co-IP assays were conducted to assess the binding between HA-AlaRS mutants and Nrp1, both with and without treatment with 20 µM Tanshinone I for 24 h. […] (C) Pull down assay was performed to detect the binding between AlaRS mutants and GST-Nrp1 b1 with or without 20 µM Tanshinone I. (D) Relative quantification statistics of the AlaRS mutants pulled down from the GST pull down experiments after Tanshinone I treatment were performed using ImageJ. (E) The cell viability of 293T and NSC34 cells treated with different concentrations of Tanshinone I was assessed using the CCK-8 assay over a 24 h period. TEXT PRINTED IN THE PICTURE: (B) Tanshinone I: Mean density band (N71Y): 0.60; Mean density band (G102R): 0.53; Mean density band (R326W): 0.50; Mean density band (R329H): 0.50; Mean density band (E337K): 0.62 | (D) Tanshinone I: Mean density band (N71Y): 0.82; Mean density band (G102R): 0.76; Mean density band (R326W): 0.84; Mean density band (R329H): 0.84; Mean density band (E337K): 0.90
To detect the direct interactions between the mutant proteins and Nrp1 in vitro, we performed a Glutathione S-transferase (GST) pull-down assay. AlaRS mutants fused with 6 × His were purified with Ni-NTA beads, followed by chromatography on a HiTrap Q HP column. Nrp1 b1 fragments fused with GST were purified with Glutathione Beads (#SA008100, Smart-Lifesciences, Changzhou, China). For GST pull-down assays, 1000 μg of each GST-fused Nrp1 b1 fragment was mixed with 200 μg of 6 × His-tagged fusion protein in binding buffer (50 mM Tris-HCl pH 7.5, 20 mM NaCl, 5% glycerol, 5 mM DTT with 0.1% BSA) at 4 °C overnight. The mixture was next incubated with 30 μL glutathione beads at 4 °C with constant rotation for 2–4 h. Subsequently, the bead/protein complex was washed three times, and eluted with 30 μL 2 × SDS sample buffer. The samples were then subjected to SDS-PAGE analysis. The experiment was repeated three times.

Cc1coc2c1C(=O)C(=O)c1c-2ccc2c(C)cccc12 [Tanshinone I]
Mean density band (E337K), relative quantification of AlaRS mutant pulled down: 0.90
